For one series, the system named is Sprague-Dawley rats. The following applies: rat, in vivo.
A further series concerns male Sprague-Dawley rats. The following applies: rat, in vivo.
In the next series the test system is weanling pigs. The following applies: pig, in vivo.

Entries after “also recorded” stand apart in the source; their conditions may differ.

As for `CC1=C[C@H]2O[C@@H]3[C@H](O)C[C@](C)([C@@]2(CO)[C@H](O)C1=O)[C@]31CO1` [DON, 3α,7α,15-trihydroxy-12,13-epoxy-trichothec-9-en-8-one], the “induction of fed pattern of gut motility” value in the series on Sprague-Dawley rats was “induced the fed pattern”. For the same molecule, in the series on male Sprague-Dawley rats, the food consumption entry is on record as “decrease”; the “food consumption and weight gain” value is “immediate and sustained reduction; also recorded: concentration-dependant reduction”; the weight gain result is given as “decrease”. In the series on weanling pigs, the emesis entry is listed as “some emesis”, the “food consumption in the AM meal following the AM treat” value was “decreased food consumption” and the “persistence of the effect on food consumption” value is recorded as “wore off by the next meal”.
`C[C@@H]1C[C@H]2O[C@@H]3[C@H](O)C[C@](C)([C@]24COC(c2ccccc2)O[C@@H]4[C@@H]1O)[C@@]3(C)O` (stereo partly drawn) [EN139502, 7α,15-benzylidene-9α,12β-dimethyltrichothecan-3α,8α,12α-triol]: in the series with Sprague-Dawley rats, the “delay before effect on the fasting pattern” value was “approximately 5 min”, the “effect on fasting pattern of gut motility” value is “intensify or enhance the fasting pattern” and the “induction of fed pattern of gut motility” value is reported as “did not induce the fed pattern”.
In the case of `C[C@@H]1C[C@H]2O[C@@H]3[C@H](O)C[C@](C)([C@]24COC(c2ccccc2)O[C@@H]4C1=O)[C@@]3(C)O` (stereo partly drawn) [EN139522, 7α,15-benzylidene-9α,12β-dimethyl-3α,12α-dihydroxytrichothecan-8-one], in the series with Sprague-Dawley rats, the duration of action was found to be 35 min, the “induction of fed pattern of gut motility” value is reported as “induce a classic fed pattern” and the “onset time after administration” value worked out at 20 s.
